Values after ≈ are worked out from the molar mass of the structure shown.
Key:
physchem = details: 37 °C, thermodynamic from solid
[1] = Theoretical calculation about permeability; details: for Apparent permeability and flux reduced to (fraction): calculated, sink conditions, donor 5 μg/mL; for Papp: not told; for Calculated Pm (app): Equation (3); for Calculated Daq (app): Equation (5), hUWL (app) = 100 μm; for Calculated Pm (U): pH 6.5 buffer
Method: Based on Fick’s first law, flux in the drug permeation can be expressed as shown in Equation (1): [36, 43]
As described in the introduction, overall permeation can be divided into membrane permeation and UWL permeation.
Pm (app) is calculated using the fraction of UFDs (FU) as shown in Equation (3):(3) Pm (app)= FUPm (U) where Pm (U) is the intrinsic permeability of UFDs.
PUWL (app) can be expressed using the apparent aqueous diffusivity (Daq (app)) from Fick’s first law as shown in Equation (5): (5) PUWL (app)= Daq (app)/hUWL (app) where hUWL (app) is the apparent thickness of the UWL. When there are no solubilizer additives in the drug formulation or test media in the permeability measurements, Equation (5) can be described as shown in Equation (6):(6) PUWL (U)= Daq (U)/hUWL (U) where hUWL (U) is the intrinsic thickness of the UWL and Daq (U) is the intrinsic aqueous diffusivity of UFDs. The thickness of the UWL can be determined based on rotation speed in the flux experiment. If the rotation speed is constant, we can assume that the thickness of the UWL is constant, independent of the addition of solubilizer additives, as shown in Equation (7):(7) hUWL (app)= hUWL (U)
Substituting hUWL (app) of Equation (5) and hUWL (U) of Equation (6) for Equation (7), PUWL (app) is described as shown in Equation (8):(8) PUWL (app)= PUWL (U)×Daq (app)/Daq (U)
The apparent aqueous diffusivity (Daq (app)) is a combined total of each fraction of aqueous diffusivity as shown in Equation (9):(9) Daq (app)= FUDaq (U) + (1−FU)Daq (B) where FU is the same fraction of UFDs as in Equation (4) and Daq (B) is the aqueous diffusivity of drug molecules bound to solubilizer additives. PUWL (app) can be calculated by Equations (6), (8), and (9) as shown in Equation (10):(10) PUWL (app)= 1/hUWL (app) {FUDaq(U) + (1−FU)Daq (B)}
Using the MW of the model compounds, each Daq (U) was calculated (calculated Daq (U) in Table 4). The UWL thickness (hUWL (app) or hUWL (U)) for the MicroFlux^TM measurements in this study was estimated to be around 100 μm based on previous studies. The intrinsic UWL permeability of UFDs (PUWL (U)) was then calculated by Equation (6) (calculated PUWL (U) in Table 4).
The apparent membrane permeability (Pm (app)) was calculated by Equation (3) using the fraction of UFDs (FU) in Table 3 and Pm (U) (calculated Pm (app) in Table 5). […] The apparent aqueous diffusivity (Daq (app)) was calculated by Equation (5) using PUWL (app) and hUWL (app) = 100 μm (calculated Daq (app) in Table 5). Substituting FU, Daq (app), and Daq (U) in Equation (9), the aqueous diffusivity of drug molecules bound to SLS (Daq (B)) was calculated (calculated Daq (B) in Table 5). As for triamcinolone, Daq (B) was not calculated in this study. […] As the aggregated number of SLS in aqueous solutions was reported to be 62, their micellar weight appeared to be around 18,000 Da. […] Assuming this micellar size is constant, permeability and flux could be calculated by Equation (10) and Equation (12) using the apparent solubility.
When pH 6.5 buffer is in the donor chamber, the apparent UWL thickness is expressed using Equations (2) and (6) as shown in Equation (14):(14) hUWL (app)=Daq (U)(1/Papp−1/Pm (U))

[2] = design: method as in PMID 20006692; details: 500 mg dose; cited from earlier work
[3] = pH 6.5
[4] = Flux measurements by MicroFlux; details: for Papp: not told, sink conditions, average ± SD (n = 3); for Flux in pH 6.5 buffer + 0.05% SLS compared with pH 6.5 buffer: sink conditions (5 μg/mL griseofulvin, 100 μg/mL triamcinolone)
[5] = 37 °C; cited from earlier work
[6] = design: method as in PMID 17724660, PMID 8668668, PMID 1808607; details: partitioning between octanol and water; cited from earlier work
[7] = pH 6.5, pH 6.5 buffer + 0.05% SLS, read-out: Calculated Papp (converted)
[8] = pH 6.5, pH 6.5 buffer, read-out: Calculated Papp (U) (converted)
[9] = pH 6.5, Measured Papp (U), pH 6.5 buffer
[10] = pH 6.5, Measured Papp, pH 6.5 buffer + 0.05% SLS

Structure (SMILES): COC1=CC(=O)C[C@@H](C)[C@]12Oc1c(Cl)c(OC)cc(OC)c1C2=O [Griseofulvin]
- solubility (physchem; pH 6.5, aqueous buffer): 10.8 ± 0.38 µg/mL (≈ 30.5 µM)
- solubility (physchem; pH 6.5, aqueous with cosolvent or surfactant or cyclodextrin): 27.4 ± 0.07 µg/mL (≈ 77.7 µM)
- Apparent permeability and flux reduced to (fraction) ([1]; apparent solubility increased by 5 times): about 1/4
- Apparent permeability and flux reduced to (fraction) ([1]; apparent solubility increased by 10 times): 1/7
- Calculated Daq (B) ([1]; drug molecules bound to SLS, Equation (9)): 8.37 × 10^−7 cm^2/s
- Papp [1, 7]: 108 ×10⁻⁶ cm/s
- Papp [1, 8]: 247 ×10⁻⁶ cm/s
- Calculated PUWL (app) ([1]; pH 6.5 buffer + 0.05% SLS, Equation (2)): 255 ×10⁻⁶ cm/s
- Calculated Pm (app) ([1]; pH 6.5 buffer + 0.05% SLS): 187 ×10⁻⁶ cm/s
- Calculated Daq (app) ([1]; pH 6.5 buffer + 0.05% SLS): 2.56 × 10^−6 cm^2/s
- Calculated Pm (U) ([1]; Equation (2)): 473 ×10⁻⁶ cm/s
- Increase of in vivo permeability and in vivo drug absorption by solid drugs in the UWL [2]: about twofold
- Solubility change by the addition of 0.05% SLS [3]: about 2.5 fold
- UFD Amount [3]: 10.75 µg/mL
- Sample concentration in the donor chamber ([4]; 50, 200 and 1000 μg/mL doses (non-sink), pH 6.5 buffer): about 10 μg/mL
- Sample concentration in the donor chamber ([4]; 50, 200 and 1000 μg/mL doses (non-sink), pH 6.5 buffer + 0.05% SLS): about 25 μg/mL
- Apparent permeability in pH 6.5 buffer + 0.05% SLS compared with pH 6.5 buffer ([4]; based on Equation (12)): almost half
- Increase of total permeated amount when the dose amount exceeded solubility ([4]; donor concentration almost constant): 20–30%
- Flux increase depending on the dose amount ([4]; non-sink conditions, both pH 6.5 buffer and pH 6.5 buffer + 0.05% SLS): 10–30%
- Papp [4, 9]: 247 ×10⁻⁶ cm/s
- Papp [4, 10]: 108 ×10⁻⁶ cm/s
- Flux in pH 6.5 buffer + 0.05% SLS compared with pH 6.5 buffer [4]: almost half
- Aqueous solubility [5]: 29.9 [40, 41] μg/mL

Structure (SMILES): C[C@]12C=CC(=O)C=C1CC[C@H]1[C@@H]3C[C@@H](O)[C@](O)(C(=O)CO)[C@@]3(C)C[C@H](O)[C@@]12F [Triamcinolone]
- Papp [1, 7]: 4.38 ×10⁻⁶ cm/s
- Papp [1, 8]: 5.07 ×10⁻⁶ cm/s
- Calculated Pm (app) ([1]; pH 6.5 buffer + 0.05% SLS): 5 ×10⁻⁶ cm/s
- Calculated Daq (app) ([1]; pH 6.5 buffer + 0.05% SLS): 3.54 × 10^−7 cm^2/s
- Calculated Pm (U) ([1]; Equation (2)): 5.12 ×10⁻⁶ cm/s
- Calculated Pm (U) ([1]; Equation (2), listed as triamcinolone): around 0.0003 cm/min
- Sample concentration in the donor chamber ([4]; 500, 2000 and 10,000 μg/mL doses (non-sink), pH 6.5 buffer and pH 6.5 buffer + 0.05% SLS): about 200 μg/mL
- Papp [4, 9]: 5.07 ×10⁻⁶ cm/s
- Papp [4, 10]: 4.38 ×10⁻⁶ cm/s
- Flux and donor concentration at the 10,000 μg/mL dose, higher than at 500 and 2000 μg/mL doses ([4]; pH 6.5 buffer + 0.05% SLS, non-sink conditions): about 10%
- Flux in pH 6.5 buffer + 0.05% SLS compared with pH 6.5 buffer [4]: almost similar values
- Log P [6]: 1.03 [40, 42]

From article PMC7998705, “Dose-Dependent Solubility–Permeability Interplay for Poorly Soluble Drugs under Non-Sink Conditions” (Pharmaceutics, 2021)
